Data taken from patent publication US20140371244A1, “METHOD FOR TREATING PROSTATE CANCER BY USE OF PHARMACEUTICAL COMPOSITION CONTAINING A3 ADENOSINE RECEPTOR AGONIST” (priority 2009, published 2014).

What was measured:
[1] = system: human colorectal cancer HCT 116 cells; experiment: SRB assay, growth of HCT 116 cells; format: cell-based; conditions: 72 hours; for growth of HCT 116 cells: 100, 50, 25 and 12.5 μM; for IC50: SRB
Method: In order to compare the inhibitory effect of thio-Cl-IB-MECA of the present invention on the inhibition of human colorectal cancer HCT 116 cells with the effects of other A3 adenosine receptor agonists, IB-MECA and Cl-IB-MECA, a sulforhodamine B (SRB) assay was performed.
Specifically, 10 μL of a solution of thio-Cl-IB-MECA in 10% dimethylsulfoxide (DMSO) was loaded in each well of a 96-well plate in triplicate at concentrations of 100, 50, 25 and 12.5 μM, thus making a test plate. Cells were diluted to a density of 5×10^4 cells/ml with 10% FBS-containing RPMI 1640 medium supplemented with antibiotics-antimycotics, and 190 μL of the cell suspension was added to each well so as to reach a total volume of 200 μL and was cultured in a 5% CO2 incubator at 37° C. for 3 days. At the same time, 190 μL of the same cell suspension was loaded into each of 16 wells or more of a fresh 96-well plate containing no sample (thio-Cl-IB-MECA) and was cultured in a 5% CO2 incubator at 37° C. for 30 minutes, thereby determining reference date. After the culture, 50 μL of 50% trichloroacetic acid (TCA) was added to each well, and the cells were fixed by culture at 4° C. for 1 hour. Then, the well plate was washed five times with tap water and dried. 100 μL of a 1% acetic acid solution containing […] sulforhodamine B (SRB) was added to each well to stain the cells, and the well plate was allowed to stand at room temperature for 1 hour. After the well plate has been washed five times with 1% acetic acid and sufficiently dried, 200 μL of 100 mM Tris-base was added to each well, and the bound staining liquid was dissolved and sufficiently shaken in a shaker. Then, the absorbance at 515 nm was measured using an ELISA microplate reader. Based on the measured absorbance, the cell viability of the test group relative to the control group was calculated using equation 2 above. Based on the viability at each concentration, the IC50 value of the test sample was calculated using TableCurve program.
In the cases of IB-MECA or Cl-IB-MECA, the viability of cancer cells was examined in the same manner as the case of thio-Cl-IB-MECA.

[2] = system: LNCaP (androgen receptor dependent); experiment: SRB assay, growth of LNCaP cells; format: cell-based, human; conditions: for IC50: SRB, 3 days
Method: In order to examine the inhibitory effects on the growth of the human prostate cancer cells LNCaP (androgen receptor dependent) and PC-3 (androgen receptor independent), a sulforhodamine B (SRB) assay was performed.
10 μL of a solution of thio-Cl-IB-MECA in 10% dimethylsulfoxide (DMSO) was loaded in each well of a 96-well plate in triplicate at concentrations of 50, 25, 12.5 and 6.25 μM, thus making a test plate. Cells were diluted to a density of 6×10^4 cells/ml with 10% FBS-containing RPMI 1640 medium supplemented with antibiotics-antimycotics, and 190 μL of the cell suspension was added to each well so as to reach a total volume of 200 μL and was cultured in a 5% CO2 incubator at 37° C. for 3 days. At the same time, 190 μL of the same cell suspension was loaded into each of 16 wells or more of a fresh 96-well plate containing no sample (thio-Cl-IB-MECA) and was cultured in a 5% CO2 incubator at 37° C. for 30 minutes, thereby determining reference date. After the culture, 50 μL of 50% trichloroacetic acid (TCA) was added to each well, and the cells were fixed by culture at 4° C. for 1 hour. Then, the well plate was washed five times with tap water and dried. 100 μL of 1% acetic acid solution containing […] sulforhodamine B (SRB) was added to each well to stain the cells, and the well plate was allowed to stand at room temperature for 1 hour. After the well plate has been washed five times with 1% acetic acid and sufficiently dried, 200 μL of 100 mM Tris-base was added to each well, and the bound staining liquid was dissolved and sufficiently shaken in a shaker. Then, the absorbance at 515 nm was measured using an ELISA microplate reader. Based on the measured absorbance, the cell viability of the test group relative to the control group was calculated using the following equation 2, and based on the viability at each concentration, the IC50 value of the sample was calculated using TableCurve program: […]

[3] = system: prostate cancer cell line PC-3; experiment: Anticancer activity in PC-3 tumor-transplanted nude mice; format: in vivo; conditions: for tumor production inhibitory activity relative to the control group: 2 mg/kg orally every day for 35 days
Method: Based on the anticancer activity of thio-Cl-IB-MECA against prostate cancer cells, proven by the in vitro test, the anticancer activity of thio-Cl-IB-MECA was measured by an animal test. The prostate cancer cell line PC-3 was transplanted subcutaneously into nude mice, and when the tumor size reached 150-200 mm^3 after 8 days, the drug thio-Cl-IB-MECA (0.02, 0.2 and 2 mg/kg), thio-IB-MECA (2 mg/kg) or IB-MECA (2 mg/kg) was administered orally every day for 35 days. The tumor size was measured at intervals of 3-5 days. The tumor volume was measured using the following equation 3.
Tumor volume=abc×π/6 [Equation 3]
wherein a represents the longer diameter of the tumor, b represents the shorter diameter of the tumor, and c represents the height of the tumor.

[4] = system: Wnt signaling-related proteins; experiment: PI-3 kinase / Wnt signaling proteins and β-catenin expression in LPS-stimulated RAW 264.7 cells; format: cell-based, mouse
Method: A test was carried out to examine the effects of the inventive composition on the expressions of PI-3 kinase (which influences the NF-κB signaling pathway) and Wnt signaling-related proteins in RAW 264.7 cells. Specifically, RAW 264.7 cells were treated with the inventive composition (20 μM thio-Cl-IB-MECA), and after 30 minutes, were stimulated by LPS. At intervals of 5, 15, 30 and 60 minutes after culture, proteins were extracted from all the cells, and the effects of the inventive composition on the expressions of the proteins were measured in comparison with those in the control group treated with only LPS.
In order to examine the intranuclear movement of β-catenin and the accumulation of β-catenin in the cytoplasm, RAW 264.7 cells were treated with each of 5, 10 and 20 μM of the inventive composition (thio-Cl-IB-MECA), and after 30 minutes, the cells were stimulated by LPS. After 1 hour of culture, the cells were collected and separated into a nuclear extract and a cytosol extract. The expressions of β-catenin protein in the cytosol and nuclear portions were analyzed by Western blot, and the results of the analysis are shown in FIG. 7b. […] When no LPS stimulation is applied, β-catenin is degraded by phosphorylation.

[5] = 20 μM, LPS stimulation, 5, 15, 30, 60 min

CNC(=O)[C@H]1S[C@@H](n2cnc3c(NCc4cccc(I)c4)nc(Cl)nc32)[C@H](O)[C@@H]1O [thio-Cl-IB-MECA, 2-chloro-N^6-(3-iodobenzyl)-4′-thioadenosine-5′-N-methyluronamide]
growth of HCT 116 cells [1]: concentration-dependently inhibited the growth
IC50 [1]: 37.5 µM
IC50 [2]: 18.6 µM
tumor production inhibitory activity relative to the control group [3]: 82.6%
tumor production as a function of dose ([3]; 0.02, 0.2 and 2 mg/kg orally every day for 35 days): inhibited tumor production in a concentration-dependent manner
expression of p-AKT [4, 5]: also inhibited at 30 min and 60 min
expression of p-GSK 3α/β [4, 5]: inhibited at 30 min and 60 min
expression of p-β-catenin ([4]; 5, 10 and 20 μM, LPS, 1 hour): concentration-dependently inhibited
expressions of β-catenin in the cytosol and nuclear portions ([4]; 5, 10 and 20 μM, LPS, 1 hour): concentration-dependently inhibited

CNC(=O)[C@H]1O[C@@H](n2cnc3c(NCc4cccc(I)c4)ncnc32)[C@H](O)[C@@H]1O [IB-MECA]
growth of HCT 116 cells [1]: concentration-dependently inhibited the growth
IC50 [1]: 62.4 µM
cell viability in LNCaP ([2]; 50 μM (highest concentration)): 54%
IC50 [2]: 54.2 µM
tumor production inhibitory activity relative to the control group [3]: about 45.9%
